# Laboratory results reported in article PMC4267990 (Journal of controlled release : official journal of the …, 2014).
# Where two headings read alike, the source gives them in different places.
# What was measured:
# [1] = In vitro DOX cumulative release kinetics by dialysis; type: physicochemical; settings: DPBS pH 7.4 with 0.5% Tween 80, 37 °C, 1 mg DOX/mL
# 4T1.2 cells = assay: In vitro cytotoxicity, MTT assay; type: cell-based, mouse; settings: 72 h, DOX concentration
# NCI/ADR-RES cells = assay: Intracellular uptake of DOX; type: cell-based; settings: 6 μg/mL DOX, 1 h (similar at 3 h)
# 4T1.2 tumor = assay: In vivo antitumor efficacy, 4T1.2 syngeneic murine breast cancer model; parameters: species or system female BALB/c mice; settings: 10 mg DOX/kg i.v., three consecutive injections
# PC-3 xenograft tumor = assay: In vivo antitumor efficacy, PC-3 human prostate cancer xenograft; parameters: species or system male nude mice; settings: 5 mg/kg i.v. on days 1, 4, 7; based on RTV on day 19
# KB 8-5 xenograft tumor = assay: In vivo antitumor efficacy, drug-resistant KB 8-5 xenograft; parameters: species or system female nude mice; settings: for Tumor growth inhibition rate IR: based on RTV on day 22
# [2] = single i.v.; for Animal death: dead/treated mice
# [3] = DOX pharmacokinetics after i.v. administration; settings: 5 mg DOX/kg
compound,measurement,setting,value
"COc1cccc2c1C(=O)c1c(O)c3c(c(O)c1C2=O)C[C@@](O)(C(=O)CO)C[C@@H]3O[C@H]1C[C@H](N)[C@H](O)[C@H](C)O1 [DOX, Doxorubicin]",amount of released DOX,[1]; after 74 h,96.35%
same,DOX released,[1]; first 9 h,92.14%
same,IC50,4T1.2 cells,0.1867 µg/mL
same,DOX fluorescence signals in cells (confocal imaging),NCI/ADR-RES cells,Least amounts of fluorescence signals
same,mortality from systemic toxicity,4T1.2 tumor,all of the mice treated with free DOX died from systemic toxicity on day 7
same,Tumor growth inhibition rate IR,PC-3 xenograft tumor,38.72%
same,Tumor growth inhibition rate IR,"KB 8-5 xenograft tumor; 5 mg/kg i.v. on days 1, 4, 7",6.13%
same,Tumor growth inhibition rate IR,"KB 8-5 xenograft tumor; 7.5 mg/kg i.v. on days 1, 4, 7",20.91%
same,body weight change,"KB 8-5 xenograft tumor; 5 and 7.5 mg/kg i.v. on days 1, 4, 7",significant weight loss
same,Weight loss,[2]; 5 mg/kg,2.2%
same,Animal death,[2]; 5 mg/kg,0/3
same,Weight loss,[2]; 10 mg/kg,7.8%
same,Animal death,[2]; 10 mg/kg,0/3
same,Animal death,[2]; 15 mg/kg,2/3
same,Animal death,"[2]; 15 mg/kg, listed as free DOX",2 out of 3
same,AUC,[3],5430 ± 110 ng·h/mL
same,CL,[3],18.40 ± 2.39 mL/h
same,Vd,[3],25.32 ± 2.15 mL
same,t1/2,[3]; non-compartment model,4.20 ± 0.35 h
